Measured values reported in patent US10624880B2, “Predicting response to alvocidib by mitochondrial profiling” (Tolero Pharmaceuticals, Inc., priority 2015, dated 2020).
pEC50: −log10 of the molar value.

Experiments:
[1] = tested on: MCL-1 mRNA in MV-4-11 cells; assay: RT-PCR of MCL-1 mRNA in MV-4-11 cells; assay type: cell-based
Description: An AML cell line, MV-4-11, expresses MCL-1. MCL-1 is a key anti-apoptotic protein in MV-4-11 cells. Alvocidib, a CDK9 inhibitor, lowers the expression of MCL-1 mRNA, which is already well documented in the literature. […] MV-4-11 cells were treated with alvocidib for 2 hrs in vitro. Following treatment, cells were harvested and prepared using a standard real time PCR (RT-PCR) assay for detection of MCL-1 mRNA to probe for changes relative to controls.
The relative expression of MCL-1 mRNA was measured at 0.5-16 hour time points after dosing with 100 nM of alvocidib.
Following treatment, cells were harvested and prepared using standard RT-PCR assay for detection of MCL-1 mRNA expression.

MCL-1 mRNA in A549 cells = assay: RT-PCR of MCL-1 mRNA in A549 cells; assay type: cell-based, human; conditions: A549, alvocidib 0-8 μM, 2 hrs, FIG. 8
Description: The A549 cell line is a human adenocarcinoma cell line, which expresses MCL-1. […] A549 cells were treated with alvocidib for 2 hrs in vitro. Following treatment, cells were harvested and prepared using a standard RT-PCR assay for detection of MCL-1 mRNA to probe for changes relative to controls.

[2] = tested on: MCL-1, Bcl-xL, and Bcl-2 in A549 cells; assay: Immunoblotting of MCL-1, Bcl-xL, Bcl-2 in A549 cells; assay type: cell-based, human; conditions: A549, 350 nM
Description: The relative expression of MCL-1, Bcl-xL, and Bcl-2 was measured at 0-96 hour time points after dosing with 350 nM of alvocidib. In one group, after 24 hours of treatment, media was removed and replaced with fresh media […] (i.e., a wash step; see FIG. 9A).
A549 cells were treated with 350 nM alvocidib in vitro for the times indicated in FIG. 9A-B. Following treatment (and wash step as applicable), cells were harvested and prepared using standard immunoblotting techniques for detection of MCL-1, Bcl-xL, and Bcl-2 expression.
The relative expression of MCL-1, Bcl-xL, and Bcl-2 was measured at 0-96 hour time points after dosing with 350 nM of alvocidib.
Cells were treated 3 times (three 24 hour periods, broken by two 24 hour breaks) with 350 nM alvocidib in vitro. Following treatment, cells were harvested and prepared using standard immunoblotting techniques for detection of MCL-1, Bcl-xL, and Bcl-2 expression.

[3] = tested on: MCL-1, Bcl-xL, and Bcl-2 in MV-4-11 cells; assay: Immunoblotting of MCL-1, Bcl-xL, Bcl-2 in MV-4-11 cells; assay type: cell-based
Description: The dose dependence is observed by monitoring the relative expression of MCL-1 compared to β-actin when cells are dosed with alvocidib at concentrations of 0-8 μM. MV4-11 cells were treated with alvocidib for 2 hrs in vitro. Following treatment, cells were harvested and prepared using standard immunoblotting techniques for detection of MCL-1 to probe for changes relative to β-actin.
The time dependence is observed by monitoring the relative expression of MCL-1, Bcl-xL, and Bcl-2 compared β-actin over time. The relative expression of MCL-1, Bcl-xL, and Bcl-2 was measured at 1-96 hour time points after dosing with 80 nM of alvocidib.
Following treatment, cells were harvested and prepared using standard immunoblotting techniques for detection of MCL-1, Bcl-xL, and Bcl-2 expression.

N-Myc in SK-N-AS cells = assay: Immunoblotting of N-Myc in SK-N-AS cells; assay type: cell-based, human; conditions: 300 nM, 1-24 hour, FIG. 11
Description: The SK-N-AS cell line is a human neuroblastoma cell line that expresses N-Myc, which is a key oncogenic protein. […] The time dependence is observed by monitoring the relative expression of N-Myc compared β-actin over time. The relative expression of N-Myc was measured at 1-24 hour time points after dosing with 300 nM of alvocidib.
Following treatment, cells were harvested and prepared using standard immunoblotting techniques for detection of N-Myc expression.

[4] = tested on: MCL-1, Bcl-xL, and Bcl-2 in Panc-1 cells; assay: Immunoblotting of MCL-1, Bcl-xL, Bcl-2 in Panc-1 cells; assay type: cell-based, human; conditions: Panc-1, 730 nM
[5] = tested on: MCL-1, Bcl-xL, and Bcl-2 in Yugen8 cells; assay: Immunoblotting of MCL-1, Bcl-xL, Bcl-2 in Yugen8 cells; assay type: cell-based; conditions: Yugen8, 280 nM
MCL-1 in MV-4-11 cells = assay: MCL-1 immunoblotting in the ACM (or FLAM) regimen modeled in vitro; assay type: cell-based
Text: (§1) Following the treatment, cells were harvested and prepared using standard immunoblotting techniques for detection of MCL-1.

MV-4-11 cells = assay: 24 hour EC50 in MV-4-11 cells; assay type: cell-based; conditions: Homo sapiens, MV4-11, read-out: 24 hour EC 50
Text: as §1

Question: How did the “time post-treatment at which MCL-1 mRNA expression was reduced” value ([1]; MV-4-11, 100 nM) turn out when `CN1CC[C@H](c2c(O)cc(O)c3c(=O)cc(-c4ccccc4Cl)oc23)[C@H](O)C1` [alvocidib] was run?
Answer: ≤ 30 min

Question: What about the “relative expression of MCL-1 mRNA compared controls over time” value ([1]; MV-4-11, 100 nM, 0.5-16 hour, FIG. 7B) of the same compound?
Answer: down-regulates MCL-1 mRNA in MV-4-11 in a time-dependent manner

Question: And the “relative expression of MCL-1 mRNA compared to controls” value ([1]; MV-4-11, alvocidib 0-8 μM, 2 hrs, FIG. 7A)?
Answer: down-regulates MCL-1 mRNA in MV-4-11 cells in a dose dependent manner

Question: What about the “relative expression of MCL-1 mRNA compared to controls” value (MCL-1 mRNA in A549 cells) of the same compound?
Answer: down-regulates MCL-1 mRNA in A549 cells in a dose dependent manner

Question: And the “relative expression of MCL-1, Bcl-xL, and Bcl-2 compared β-actin over time” value (shortened to “relative expression of MCL-1, Bcl-xL”) ([2]; 0-96 hour, with and without wash step, FIG. 9A-B)?
Answer: down-regulates MCL-1 in A549 in a time-dependent manner

Question: And the “relative expression of MCL-1, Bcl-xL” value ([2]; repeat dosing (three 24 hour periods, two 24 hour breaks), FIG. 12)?
Answer: down-regulates MCL-1 in A549 cells in a time-dependent manner

Question: And the “relative expression of MCL-1, Bcl-xL” value ([3]; MV-4-11, 80 nM, 1-96 hour, FIG. 10B)?
Answer: down-regulates MCL-1 in MV-4-11 in a time-dependent manner

Question: And the “relative expression of MCL-1 compared to β-actin” value ([3]; MV-4-11, alvocidib 0-8 μM, 2 hrs, FIG. 10A)?
Answer: down-regulates MCL-1 in MV-4-11 cells in a dose dependent manner

Question: And the “relative expression of N-Myc compared β-actin over time” value (N-Myc in SK-N-AS cells)?
Answer: down-regulates N-Myc in SK-N-AS cells in a time-dependent manner

Question: What about the “relative expression of MCL-1, Bcl-xL” value ([4]; 0-96 hour, with and without wash step, FIG. 13A-B) of the same compound?
Answer: down-regulates MCL-1 in Panc-1 cells in a time dependent manner

Question: And the “relative expression of MCL-1, Bcl-xL” value ([4]; repeat dosing regimen, FIG. 14)?
Answer: down-regulates MCL-1 in Panc-1 cells in a time-dependent manner

Question: And the “relative expression of MCL-1, Bcl-xL” value ([5]; 0-96 hour, with and without wash step, FIG. 15A-B)?
Answer: down-regulates MCL-1 in Yugen8 cells in a time dependent manner

Question: And the “relative expression of MCL-1, Bcl-xL” value ([5]; repeat dosing regimen, FIG. 16)?
Answer: down-regulates MCL-1 in Yugen8 in a time-dependent manner

Question: What about the “relative expression of MCL-1 compared to β-actin” value (MCL-1 in MV-4-11 cells; MV-4-11, each treatment dosed at its 24 hour EC50, FIG. 17B) of the same compound?
Answer: lower the expression of MCL-1

Question: What about the “expression of MCL-1 over the course of the ACM (or FLAM) regimen” value (MCL-1 in MV-4-11 cells; modeled in vitro, MV-4-11, FIG. 17A) of the same compound?
Answer: represses super enhancer complex regulated genes, including expression of MCL-1

Question: What about the pEC50 (MV-4-11 cells) of the same compound?
Answer: 7.10

Question: With `CC(=O)c1c(C)c2cnc(Nc3ccc(N4CCNCC4)cn3)nc2n(C2CCCC2)c1=O` [palbociclib] as the compound, how does the pEC50 (MV-4-11 cells) read?
Answer: 6.00
